Laboratory results reported in patent publication US8486374B2, “Hydrophilic, non-aqueous pharmaceutical carriers and compositions and uses” (Foamix Ltd., priority 2004, dated 2013).

Experiments:
Format in all cases: physicochemical
[1] = Solubility of the active agent in solvents/carriers; conditions: in the polyol and DMI mixture (Example 19 composition)
[2] = Foam appearance (color, odor, form); design: key to ODOR: No odor (N.O.); key to COLOR: white (W)
[3] = Shakability of the composition
From the text: ‘Shakability’ means that the composition contains some or sufficient flow to allow the composition to be mixed or remixed on shaking. That is, it has fluid or semi fluid properties. A breakable foam is that is thermally stable, yet breaks under sheer force.
‘Shakability’ means that the composition contains some or sufficient flow to allow the composition to be mixed or remixed on shaking. That is, it has fluid or semi fluid properties. In some very limited cases it may still be possible to have a foamable composition which is flowable but not apparently shakable.

[4] = Foam quality grading upon release from the aerosol container; conditions: active agent in stock of PEG-400 97.5, hydroxypropyl cellulose 0.5, steareth 2 2.0 (first Example 29)
From the text: Foam quality can be graded as follows:
Grade FG (fairly good): a moderate amount of creaminess noticeable, bubble structure is noticeable; upon spreading on the skin the product dulls rapidly and becomes somewhat lower in apparent viscosity.
Grade F (fair): very little creaminess noticeable, larger bubble structure than a “fairly good” foam, upon spreading on the skin it becomes thin in appearance and watery.
Grade P (poor): no creaminess noticeable, large bubble structure, and when spread on the skin it becomes very thin and watery in appearance.
Grade VP (very poor): dry foam, large very dull bubbles, difficult to spread on the skin.

[5] = active agent in stock of PEG-400 97.5, hydroxypropyl cellulose 0.5, steareth 2 2.0 (first Example 29)
[6] = active agent in stock of propylene glycol 46, glycerin 33, dimethyl isosorbide 15, stearyl alcohol, hydroxypropyl cellulose, laureth-4, GMS/PEG 100 stearate (Example 30)
[7] = active agent in stock of propylene glycol 91, stearyl alcohol 2, Klucel EF 2, laureth-4 2, glyceryl monostearate/PEG 100 stearate 3 (second Example 29)

**Q.** With `Nc1nc2c(ncn2COCCO)c(=O)[nH]1` [Acyclovir] as the compound, how does the solubility [1] read?
**A.** The solubility was “not fully soluble”.

**Q.** What about the COLOR [2, 5] of the same compound?
**A.** Its COLOR is “W”.

**Q.** And the ODOR [2, 5]?
**A.** The ODOR was “N.O”.

**Q.** What about the COLOR [2, 6] of the same compound?
**A.** Its COLOR is “O.W”.

**Q.** What about the ODOR [2, 6] of the same compound?
**A.** The ODOR was “N.O”.

**Q.** What about the COLOR [2, 7] of the same compound?
**A.** Its COLOR is “O.W”.

**Q.** What about the ODOR [2, 7] of the same compound?
**A.** The ODOR was “N.O”.

**Q.** What about the SHAKABILITY [3, 5] of the same compound?
**A.** Its SHAKABILITY is “Yes”.

**Q.** What about the SHAKABILITY [3, 6] of the same compound?
**A.** Its SHAKABILITY is “Yes”.

**Q.** And the SHAKABILITY [3, 7]?
**A.** The SHAKABILITY was “Yes”.

**Q.** With `O=C(O)Cc1ccccc1Nc1c(Cl)cccc1Cl` [Diclofenac sodium] as the compound, how does the COLOR [2, 5] read?
**A.** Its COLOR is “W”.

**Q.** What about the ODOR [2, 5] of the same compound?
**A.** Its ODOR is “N.O”.

**Q.** What about the COLOR [2, 6] of the same compound?
**A.** Its COLOR is “W”.

**Q.** What about the ODOR [2, 6] of the same compound?
**A.** Its ODOR is “N.O”.

**Q.** And the COLOR [2, 7]?
**A.** Its COLOR is “W”.

**Q.** What about the ODOR [2, 7] of the same compound?
**A.** Its ODOR is “N.O”.

**Q.** What about the SHAKABILITY [3, 5] of the same compound?
**A.** The SHAKABILITY was “Yes”.

**Q.** What about the SHAKABILITY [3, 6] of the same compound?
**A.** The SHAKABILITY was “Yes”.

**Q.** What about the SHAKABILITY [3, 7] of the same compound?
**A.** Its SHAKABILITY is “Yes”.

**Q.** And the QUALITY [4]?
**A.** The QUALITY was “G+”.
